Patent US12109251B2, “Satiation peptide administration” (University of Florida Research Foundation, Incorporated, priority 2009, dated 2024)

Columns and labels:
[1] = tested on: male Balb/c mice; experiment: Territorial Resident/Intruder aggression test; type: in vivo
Method: Data presented in this report indicate that long-term expression of Peptide YY3-36, an agonist of NPY Y receptors with higher affinity for the Y2 receptor, abolish aggressive behavior in mice. To test these observations, we used the territorial Resident/Intruder (R/I) aggressive paradigm (6), a standard test for evaluating rodent aggressive behavior. The test was applied on three different occasions using different intruders. Tests were recorded and analyzed in a blind manner using the Observer v5.0 software (Noldus Information Technology) (see videos, Supplementary data) (7).
Behavioral studies: Aggression territorial-Intruder test were performed on week 24 after the treatment (6). Briefly, PYY-, or GFP-treated resident mice were individually housed for at least two weeks prior to testing. Bedding from cages was not changed during the testing period to avoid unnecessary stress. On the day of the experiment, a smaller size intruder was placed into the resident cage for 10 minutes and the resident's behavior was recorded with a video camera. Each experiment was repeated 3 times on three different occasions and with different intruders. The videos from the experiments were analyzed for non-aggressive and aggressive behavior by an expert in a blind manner using The Observer v5.0 software (Noldus Information Technology) (7).
Data was reported in mean±SEM.

[2] = tested on: mice; experiment: PYY mouth spray, food intake after 24 hours fasting; type: in vivo
Method: Synthetic PYY was purchased from Bachem, Inc USA (Cat #H-6042) and diluted in sterile H2O. Sterile un-used perfume sample vials (Saphora) were utilized to administer PYY in the form of a mouth spray. It was estimated that the volume of one spray approximates to about […].
Mice were conditioned three times to 24 hours fasting starting at the beginning of the dark cycle and ending at the end of the light cycle. At the end of the fasting cycle and as a part of conditioned routine, a sterile water spray had been administered into the mouth. All the experiments were done during the first hour of the dark cycle after fasting. Once the dark cycle started, mice were sprayed once with either PYY or sterile H2O in a total volume of […] per spray. After the treatment, mice were returned to their cages and ten minutes later pre-weighted chow was provided. One hour later, the amount of consumed chow had been recorded by measuring the leftover amount. When the experiments were repeated, mice were fasted only once a week with the control and experimental groups rotated.

Substance	chase duration ([1]; vs control mice)	chase events ([1]; vs control mice)	attack duration ([1]; vs controls)	attack latency ([1]; vs controls)	normal social interactions manifested by sniffing ([1]; vs controls)	threat duration ([1]; vs controls)	threat events ([1]; vs controls)	attack events ([1]; week 24 after treatment, n=5, mean±SEM) [events per 10 min]	decrease in the number of attack events compared to controls ([1]; week 24 after treatment, n=5, p<0.05) [fold]	dose response of PYY mouth spray on FI after one hour ([2]; mouth spray)	less food consumed in one hour compared to H2O spray control ([2]; one mouth spray, 5 ug per 100 g of body weight, after 24 h fasting, average, P=0.03) [%]
PYY3-36: endogenous NPY Y2 receptor agonist; salivary level raised long-term by rAAV-PYY in the treated mice	decrease	decrease	significant decrease	significant increase	did not change	significant decrease	significant decrease	0.07±0.067	44	–	–
PYY: Synthetic PYY purchased from Bachem (Cat #H-6042), diluted in sterile H2O, given as a mouth spray [Peptide YY]	–	–	–	–	–	–	–	–	–	significant PYY dose response effect	15
